From article PMC8760490, “Discovery of novel furanylbenzamide inhibitors that target oncogenic tyrosine phosphatase SHP2 in leukemia cells” (The Journal of Biological Chemistry, 2021)
“Also recorded” adds a separate entry of the source.

Key:
SHP2cat [1] = target: T1, SHP2cat (Homo sapiens, UniProt Q06124); assay: Jump-dilution inhibition assay; format: biochemical; conditions: 10× preincubation 10 min, 10× jump dilution
T1 construct: the SHP2 catalytic domain (SHP2cat; residues 248–527); made in house
T1 sequence (Q06124 248-527): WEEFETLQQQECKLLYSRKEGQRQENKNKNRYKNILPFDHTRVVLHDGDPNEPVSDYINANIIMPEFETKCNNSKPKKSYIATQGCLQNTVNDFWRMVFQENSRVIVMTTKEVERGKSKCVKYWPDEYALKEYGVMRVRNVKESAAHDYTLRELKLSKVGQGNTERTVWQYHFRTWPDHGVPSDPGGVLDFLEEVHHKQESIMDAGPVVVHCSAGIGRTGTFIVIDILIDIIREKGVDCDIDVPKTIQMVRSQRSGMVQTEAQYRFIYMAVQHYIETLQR
Method: PTPs contain a highly nucleophilic cysteine that is essential for catalytic activity but is susceptible to oxidation and covalent modifications, which abrogate its nucleophilic function and phosphatase activity ([26]). Because the methylenebenzothiophenone moiety of our inhibitors could potentially act as a Michael acceptor and thus covalently bind to the catalytic cysteine, we tested whether the observed inhibition of SHP2 was dependent on the preincubation time of inhibitor and enzyme. An irreversible covalent inhibitor may show time-dependent inhibition, with increased potency at longer incubation times. […] To test for time-dependent inhibition, SBI-2130 at ten different concentrations was preincubated with SHP2-E76K for 1, 5, 10, 20, or 60 min, before the DiFMUP substrate was added to the reaction mixture and initial rates were recorded (Fig. 3C). […]
SBI-2130 was tested for reversibility of inhibition in a jump-dilution experiment using SHP2cat. […] The enzyme reaction was started by the addition of 5 μl of DiFMUP working solution (100 μM in 50 mM Bis–Tris, pH 6.0, 50 mM NaCl, 0.5 mM EDTA, and 0.01% Tween-20), and fluorescence intensity was measured in kinetic mode (every minute for 10 min) using a Tecan Spark Multimode Microplate Reader as described previously. […] The initial rates were determined from the linear progression curves of the SHP2cat reaction. […]

SHP2cat [2] = target: T1, SHP2cat; assay: Mass spectrometry test for inhibitor:protein adducts; conditions: SHP2cat 5 μM, inhibitor 100 μM, 1-60 min
Method: PTPs contain a highly nucleophilic cysteine that is essential for catalytic activity but is susceptible to oxidation and covalent modifications, which abrogate its nucleophilic function and phosphatase activity ([26]). Because the methylenebenzothiophenone moiety of our inhibitors could potentially act as a Michael acceptor and thus covalently bind to the catalytic cysteine, we tested whether the observed inhibition of SHP2 was dependent on the preincubation time of inhibitor and enzyme. An irreversible covalent inhibitor may show time-dependent inhibition, with increased potency at longer incubation times. Conversely, the potency of a noncovalent inhibitor is expected to be insensitive to the time it is incubated with the enzyme. To test for time-dependent inhibition, SBI-2130 at ten different concentrations was preincubated with SHP2-E76K for 1, 5, 10, 20, or 60 min, before the DiFMUP substrate was added to the reaction mixture and initial rates were recorded (Fig. 3C). […] In addition, we used mass spectrometry to test whether inhibitor:protein adducts are being formed. Specifically, we incubated SHP2cat (5 μM) with SBI-4668 (100 μM) in assay buffer for various times (1, 5, 20, and 60 min) before trypsin proteolysis and subsequent mass spectrometry analysis. […] Finally, we performed a jump-dilution experiment to test for irreversible inhibition of SHP2. […]

Row | SMILES | reversibility: IC50 curves jump dilution vs regular dose–response (SHP2cat [1]) | inhibitor:protein adduct formation (mass spectrometry) (SHP2cat [2])
1 | Nc1ccc(NC(=O)c2cc(-c3ccc(/C=C4\Sc5ccccc5C4=O)o3)ccc2O)cc1 [SBI-2130, (Z)-N-(4-Aminophenyl)-2-hydroxy-5-(5-((3-oxobenzo[b]thiophen-2(3H)-ylidene)methyl)furan-2-yl)benzamide] | reversible inhibitor; also recorded: practically identical | 
2 | O=C(Nc1ccccc1)c1cc(-c2ccc(/C=C3\Sc4ccccc4C3=O)o2)ccc1O [SBI-4668, (Z)-2-Hydroxy-5-(5-((3-oxobenzo[b]thiophen-2(3H)-ylidene)methyl)furan-2-yl)-N-phenylbenzamide] |  | no adduct formation
